Entries after “also recorded” stand apart in the source; their conditions may differ. Where two headings read alike, the source gives them in different places. Marks after values point to notes of the source that are not given here.
Legend:
[1] = tested on: L5 nerve transection-induced allodynia and hyperalgesia; test: Chung (L5 spinal nerve transection) neuropathic pain model; assay type: in vivo, rat
Description: The Chung (L5 nerve transection) is a well-known model for chronic (neuropathic) pain. […]
The activity of KAI-1678 has been evaluated in the L5 transection model or modified Chung model, is a mononeuropathic pain model in which the L5 spinal nerve is surgically transected, resulting in rapid development of sustained pain. The activity of KAI-1678 in this model is described below.
The rat L5 spinal nerve transection model has been used to evaluate the response to modulators of neuropathic pain. In the studies described below surgical transaction of the L5 spinal nerve was used to elicit mechanical allodynia, mechanical hyperalgesia and thermal hyperalgesia that characterize neuropathic pain. In this model, the neuropathic effects develop within a day and are reported to last for 1-2 months.
Mechanical allodynia and mechanical hyperalgesia are measured using calibrated von Frey filaments to elicit a flexion withdrawal response (paw withdrawal response) by pressing them against the plantar surface of the hindpaw on the same side as the nerve transection. The 2 g, 6 g and 10 g von Frey filaments are used to assess allodynia since these stimuli are normally innocuous to naïve animals. The 15 g, 26 g and 60 g filaments are used to assess algesia (response to noxious stimulus) since these stimuli elicit paw withdrawals in naïve animals and are considered to represent painful stimuli.
The existence of the disease state following nerve transection is confirmed based on tests performed with the 2 g and the 10 g filaments.
Once the disease state is confirmed, evaluation of the extent of mechanical allodynia or hyperalgesia is determined by observing the number of paw withdrawals in responsse to 5 tests with each of the von Frey filaments. Results are typically expressed either as the total number of paw withdrawals for the allodynic filaments (2 g, 6 g and 10 g for a total of 15 tests) or the algesic filaments (15 g, 26 g and 60 g for a total of 15 tests), or as the lowest filament to which the animals in a group have an average positive response defined as ≧3 withdrawals out of 5 tests with a particular filament. […]
Rats given an L5 spinal nerve transection were treated with a bolus subcutaneous dose of KAI-1678 ranging from 0.00025-0.25 mcg/rat (˜0.001-1 mcg/kg) on day 7 post-transection. The degree of mechanical allodynia and hyperalgesia was evaluated based on the number of paw withdrawals (out of 30) in response to 6 different von Frey filaments before and up to 3 hours after administration of the compound.

spared nerve pain = test: Single spared nerve model; assay type: in vivo; conditions: preliminary, doses similar to carrageenan model
Description: (§1) While experiments with these models are continuing, additional work is being done in other pain models.

[2] = Rat pharmacokinetics, plasma levels by sandwich-based ELISA; assay type: in vivo
Experimental: To initially characterize the pharmacokinetics of KAI-1678 in rats, male rats were administered KAI-1678 at doses of 100 and 1,000 mcg/rat (˜300 and ˜3,000 mcg/kg) as an IV bolus injection via the tail vein. Blood samples were withdrawn periodically for up to two hours following the injection for plasma analysis of KAI-1678 levels. There were three and two animals in the 100 and 1,000 mcg dose groups, respectively, and there was consistency in KAI-1678 plasma concentrations between animals in each dose group.
In the experiment shown in FIG. 29, male rats were administered KAI-1678 as a subcutaneous bolus injection (200 microL into the left hindleg) at doses of 25 or 250 mcg/animal (approximately 80 and 800 mcg/kg, respectively). Blood samples were taken at various time points over two hours after administration of the compound to determine plasma concentrations of KAI-1678. There were three and four animals in the 25 and 250 mcg/animal dose groups, respectively, and the KAI-1678 plasma concentration measurements were consistent between animals in each dose group. Cmax occurred within 10 minutes after injection and increased in a dose-proportional manner over the two doses tested.
In the experiment shown in FIG. 30, male rats were administered KAI-1678 as a continuous subcutaneous infusion for 2 hours at doses of 19 and 190 mcg/kg/hr. Blood samples were taken at various time points throughout the infusion and for 1 hour after the end of infusion to determine plasma concentrations of KAI-1678. There were two animals per dose group and the plasma KAI-1678 concentration measurements were consistent between animals in each dose group. At the lower dose rate (19 mcg/kg/hr), plasma concentrations reached steady state (˜3 ng/mL) by 60 minutes and remained relatively constant throughout the rest of the infusion. […] At both dose rates, plasma concentrations of KAI-1678 dropped quickly after the end of infusion although compound was still detectable at both dose levels one hour after the end of infusion.

incision pain = test: Brennan incision model; assay type: in vivo; conditions: preliminary, doses similar to carrageenan model
Description: as §1

[3] = Rat pharmacokinetics, plasma levels by sandwich-based ELISA; assay type: in vivo; remark: listed apart in the source
[4] = Dog toxicokinetics and tissue levels, 5-day subcutaneous infusion; conditions: for Tissue level, Dose Site Muscle, Mean / Tissue level, Dose Site Skin, Mean / Tissue level, Kidney, Mean / Tissue level, Liver, Mean / Tissue level, Lung, Mean / Tissue level, Peripheral Nerve, Mean / Tissue level, Skeletal Muscle, Mean / Tissue level, Spinal Cord, Mean / Tissue level, Brain, Mean: 25 mg/kg/day sc infusion five days
Description: The pharmacokinetics of KAI-1678 are being studied in rats administered the compound as an intravenous bolus and infusion or as a subcutaneous bolus and infusion. The toxicokinetics of KAI-1678 are being studied in dogs administered the compound as a subcutaneous infusion as part of the toxicity studies. In these studies, plasma levels of KAI-1678 have been determined using a sandwich-based ELISA assay developed at KAI Pharmaceuticals. The lower limit of quantitation of this assay is approximately 0.3 ng/mL. A similar assay has been developed to measure tissue levels of KAI-1678.
As part of a range-finding toxicology study, 6 beagle dogs (one per sex per group) were administered continuous subcutaneous infusions of KAI-1678 for 5 days at dose levels of 3, 8 and 25 mg/kg/day. Blood samples were collected at various times on Day 1 (start of infusion) and Day 6 (after the end of infusion).
As part of this study, tissues were harvested from a subset of the animals at the end of dosing.

[5] = subcutaneous bolus 0.1 and 1 mcg/kg

Substance: Ac-EAVSLKPTGGYGRKKRRQRRR-NH2 [KAI-1678]
- Mechanical allodynia, 10 g filament ([1]; minipump 0.025 and 0.25 mcg/day, lasted until Day 7 post-pump implantation): nearly complete reversal of mechanical allodynia
- Duration of anti-hyperalgesic effect [1, 5]: at least 2 hours
- Mechanical hyperalgesia, 15 g, 26 g and 60 g von Frey filaments [1, 5]: completely reverses mechanical hyperalgesia
- Doses giving dose-dependent decrease in mechanical allodynia and mechanical hyperalgesia ([1]; subcutaneous bolus, day 7 post-transection, FIG. 25): ≥ 0.01 µg/kg
- Potency relative to carrageenan-induced inflammatory pain model ([1]; subcutaneous infusion): about 1000 fold
- Dose rates substantially reducing mechanical allodynia ([1]; subcutaneous osmotic minipump, 10 g filament, FIG. 26): ≥ 0.0025 µg/day
- Activity in single spared nerve model (spared nerve pain): also active in these models
- Clearance from systemic circulation ([2]; intravenous bolus): rapidly cleared from systemic circulation
- level at 1 h ([2]; male, rat, plasma, sc, 19 ug/kg/hr, subcutaneous infusion 19 mcg/kg/hr, by 60 minutes, read-out: Steady state plasma concentration): ~3 ng/mL
- Tmax ([2]; male, rat, plasma, sc, subcutaneous bolus, read-out: Time of maximum plasma concentration (converted)): ~10 min
- half-life ([2]; rat, in vivo, iv, 300 ug/kg, IV bolus ~300 mcg/kg, preliminary, read-out: Terminal half-life): ~38 min
- half-life ([2]; rat, in vivo, iv, IV bolus ~300 mcg/kg, preliminary, read-out: Terminal half-life): ~38 min
- half-life ([2]; rat, in vivo, iv, IV bolus ~3,000 mcg/kg, preliminary, read-out: Terminal half-life): ~66 min
- half-life ([2]; rat, in vivo, iv, intravenous bolus, read-out: Terminal half-life): ~50 min
- half-life ([2]; rat, in vivo, sc, 800 ug/kg, subcutaneous bolus approximately 80 and 800 mcg/kg, read-out: Terminal half-life): ~35 min
- half-life ([2]; rat, in vivo, sc, subcutaneous infusion, read-out: Half-life after end of infusion): ~30 min
- Cmax ([2]; rat, in vivo, sc, subcutaneous infusion 190 mcg/kg/hr for 2 hours): ~60 ng/mL
- bioavailability ([2]; rat, in vivo, sc, subcutaneous route vs intravenous bolus): ~10%
- Dose proportionality of exposure ([2]; subcutaneous bolus (80, 800 mcg/kg) or infusion (19, 190 mcg/kg/hr)): dose-proportional increases in exposures
- Half-life after end of infusion ([2]; subcutaneous infusion): ~45 min
- Time of maximum plasma concentration ([2]; subcutaneous infusion): ~1 h
- Activity in Brennan incision model (incision pain): also active in these models
- Steady state plasma concentration ([3]; 2-hr intravenous infusion at 50 mcg/kg/hr): 10 to 20 ng/mL
- half-life ([3]; rat, in vivo, iv, intravenous infusion, read-out: Terminal half-life): ~25 min
- Tissue level, Dose Site Muscle, Mean ([4]; Animal 4001, male): 111 ng KAI-1678/g tissue
- Tissue level, Dose Site Skin, Mean ([4]; Animal 4001, male): 1139 ng KAI-1678/g tissue
- Tissue level, Kidney, Mean ([4]; Animal 4001, male): 689 ng KAI-1678/g tissue
- Tissue level, Liver, Mean ([4]; Animal 4001, male): 224 ng KAI-1678/g tissue
- Tissue level, Lung, Mean ([4]; Animal 4001, male): 254 ng KAI-1678/g tissue
- Tissue level, Peripheral Nerve, Mean ([4]; Animal 4001, male): 429 ng KAI-1678/g tissue
- Tissue level, Skeletal Muscle, Mean ([4]; Animal 4001, male): 133 ng KAI-1678/g tissue
- Tissue level, Spinal Cord, Mean ([4]; Animal 4001, male): 11 ng KAI-1678/g tissue
- Tissue level, Brain, Mean ([4]; Animal 4001, male, includes a data point below limit of quantitation): 6* ng KAI-1678/g tissue
- Tissue level, Brain, Mean ([4]; Animal 4501, female): 7 ng KAI-1678/g tissue
- Tissue level, Dose Site Muscle, Mean ([4]; Animal 4501, female): 1003 ng KAI-1678/g tissue
- Tissue level, Dose Site Skin, Mean ([4]; Animal 4501, female): 6165 ng KAI-1678/g tissue
- Tissue level, Kidney, Mean ([4]; Animal 4501, female): 3054 ng KAI-1678/g tissue
- Tissue level, Liver, Mean ([4]; Animal 4501, female): 1505 ng KAI-1678/g tissue
- Tissue level, Lung, Mean ([4]; Animal 4501, female): 1364 ng KAI-1678/g tissue
- Tissue level, Peripheral Nerve, Mean ([4]; Animal 4501, female): 155 ng KAI-1678/g tissue
- Tissue level, Skeletal Muscle, Mean ([4]; Animal 4501, female): 33 ng KAI-1678/g tissue
- Tissue level, Spinal Cord, Mean ([4]; Animal 4501, female): 140 ng KAI-1678/g tissue
- Clearance from systemic circulation / plasma level after end of infusion ([4]; subcutaneous infusion over 5 days, 3, 8 and 25 mg/kg/day): rapidly cleared from the systemic circulation; also recorded: declined quickly upon cessation of infusion
- Levels in brain and spinal cord ([4]; subcutaneous infusion over 5 days, end of infusion): consistently low

Source: patent US8492346B2, “Methods of use of epsilon inhibitor compounds for the attenuation of pain” (KAI Pharmaceuticals, Inc., priority 2007, dated 2013)
